From patent US10213415B2, “Compounds as opioid receptor modulators” (JANSSEN PHARMACEUTICA NV, priority 2004, dated 2019)
Like-named read-outs stand apart in the source and are kept apart here.

Key:
[1] = molecular target: T1, delta opioid receptor (NG108-15 cell membranes) (Mus musculus, UniProt P32300); experiment: Delta Opioid Receptor Functional Assay: [35S]GTPγS Binding in NG108-15 Cell Membranes, Version 2; assay type: biochemical; conditions: NG108-15 cell membranes, version 2; for EC50: [35S]GTPγS, read-out: DOR GTP-binding Assay_v2_ EC50; for DOR GTP-binding Assay v2 (% I): % inhibition of agonist-stimulated GTPγS binding
T1 construct: NG108-15 cell membranes were purchased from Applied Cell Sciences (Rockville, Md.); host or cells: NG108-15 cells (membranes purchased)
T1 sequence (P32300 whole entry): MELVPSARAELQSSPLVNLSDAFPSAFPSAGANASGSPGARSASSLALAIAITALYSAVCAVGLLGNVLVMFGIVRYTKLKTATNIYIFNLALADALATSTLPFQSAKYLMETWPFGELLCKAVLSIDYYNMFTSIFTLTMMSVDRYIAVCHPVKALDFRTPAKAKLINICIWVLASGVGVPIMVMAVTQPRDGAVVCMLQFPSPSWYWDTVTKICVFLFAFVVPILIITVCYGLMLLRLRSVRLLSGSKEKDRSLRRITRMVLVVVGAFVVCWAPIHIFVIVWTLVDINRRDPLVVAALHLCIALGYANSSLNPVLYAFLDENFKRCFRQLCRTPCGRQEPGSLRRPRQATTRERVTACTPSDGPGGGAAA
Description: NG108-15 cell membranes were purchased from Applied Cell Sciences (Rockville, Md.). 8 mg/ml of membrane protein suspended in 10 mM TRIS-HC pH 7.2, 2 mM EDTA, 10% sucrose.
Membranes were maintained at 4-8° C. A portion (1 ml) of membranes was added into 10 ml cold binding assay buffer. The assay buffer contained 50 mM Tris, pH 7.6, 5 mM MgCl2, 100 mM NaCl, 1 mM DTT and 1 mM EGTA. The membrane suspension was homogenized with a Polytron for 2 times and centrifuged at 3000 rpm for 10 min. The supernent was then centrifuged at 18,000 rpm for 20 min. The pellet was saved in a tube and 10 ml assay buffer was added into the tube. The pellet and buffer were mixed with a Polytron.
The pellet membranes (75 μg/ml) were preincubated with SPA (10 mg/ml) at 25° C. for 45 min in the assay buffer. The SPA (5 mg/ml) coupled with membranes (37.5 μg/ml) was then incubated with 0.1 nM [^35S] GTPγS in the same Tris buffer containing 100 μM GDP in total volume of 200 μl. Increasing concentrations of receptor agonists were used to stimulate [^35S] GTPγS binding. The basal binding was tested in the absent agonists and no specific binding was tested in the present 10 μM unlabeled GTPγS. The data were analyzed on a Top counter.
[formula] % Inhibition=(% stimulation by 1 μM SNC80−% stimulation by 1 μM SNC80 in presence of test compound)×100/(% Stimulation by 1 μM SNC80−100) % of Basal=(stimulate−non specific)*100/(basal−non specific). EC50 values were calculated using GraphPad Prism.

[2] = molecular target: T2, mu opioid receptor (CHO-hMOR cell membranes) (Homo sapiens, UniProt P35372); experiment: Mu Opioid Receptor Functional Assay: [35S]GTPγS Binding in CHO-hMOR Cell Membranes, Versions 1 and 2; assay type: biochemical; conditions: for MOR GTP binding assay_v2 (% I): version 2, % inhibition of agonist-stimulated GTPγS binding; for EC50: version 2, read-out: MOR GTP binding assay v2 EC50; for MOR GTP binding assay_v1 (% I): version 1, % inhibition of agonist-stimulated GTPγS binding; for MOR GTP assay_v1 % of Basal: version 1, basal binding = 100%
T2 construct: purchased Receptor Biology, Inc. (Baltimore, Md.); host or cells: CHO cells (recombinant expression)
T2 sequence (P35372 whole entry): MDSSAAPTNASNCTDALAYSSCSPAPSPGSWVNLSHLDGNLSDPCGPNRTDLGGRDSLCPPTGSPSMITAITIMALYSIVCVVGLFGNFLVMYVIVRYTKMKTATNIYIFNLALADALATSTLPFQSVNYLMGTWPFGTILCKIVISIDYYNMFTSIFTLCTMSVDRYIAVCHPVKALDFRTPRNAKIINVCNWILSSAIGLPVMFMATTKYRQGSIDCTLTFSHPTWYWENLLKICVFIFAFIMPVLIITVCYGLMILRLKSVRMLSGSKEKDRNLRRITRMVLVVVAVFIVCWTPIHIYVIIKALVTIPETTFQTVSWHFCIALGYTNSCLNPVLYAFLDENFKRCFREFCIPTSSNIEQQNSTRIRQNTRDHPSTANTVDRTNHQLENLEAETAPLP
Procedure, shortened: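 CHO-hMOR membranes (10 μg/ml) on WGA SPA beads, preincubated 45 min at 25 °C, then incubated with 0.5 nM [35S]GTPγS in HEPES pH 7.6, 5 mM MgCl2, 100 mM NaCl, 1 mM DTT, 1 mM EDTA. Non-specific binding with 10 μM unlabeled GTPγS; agonist EC50 from concentration-response, antagonism as inhibition of 1 μM SNC80-stimulated binding.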

[3] = molecular target: T3, mu opioid receptor (Rattus norvegicus, UniProt P33535); experiment: Rat Brain Mu Opioid Receptor Binding Assay (and Version 2a, [3H]DAMGO); conditions: rat forebrain membranes, margin of error 10-20%, read-out: r Ki μ
T3 construct: from tissue; host or cells: forebrain of male Wistar rats
T3 sequence (P33535 whole entry): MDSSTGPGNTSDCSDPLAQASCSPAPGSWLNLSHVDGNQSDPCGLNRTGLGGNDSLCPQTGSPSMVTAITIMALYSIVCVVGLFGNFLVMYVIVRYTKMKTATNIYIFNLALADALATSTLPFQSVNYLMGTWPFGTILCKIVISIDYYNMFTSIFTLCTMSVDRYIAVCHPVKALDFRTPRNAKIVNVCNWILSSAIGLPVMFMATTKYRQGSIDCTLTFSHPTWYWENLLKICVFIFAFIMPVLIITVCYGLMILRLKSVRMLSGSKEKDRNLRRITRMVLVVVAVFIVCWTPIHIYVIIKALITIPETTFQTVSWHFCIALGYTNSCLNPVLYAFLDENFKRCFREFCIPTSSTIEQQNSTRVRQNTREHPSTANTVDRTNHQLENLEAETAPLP
Description: Male, Wistar rats (150-250 g, VAF, Charles River, Kingston, N.Y.) are killed by cervical dislocation, and their brains removed and placed immediately in ice cold Tris HCl buffer (50 mM, pH 7.4). The forebrains are separated from the remainder of the brain by a coronal transection, beginning dorsally at the colliculi and passing ventrally through the midbrain-pontine junction. After dissection, the forebrains are homogenized in Tris buffer in a Teflon® glass homogenizer. The homogenate is diluted to a concentration of 1 g of forebrain tissue per 80 mL Tris and centrifuged at 39,000×g for 10 min. The pellet is resuspended in the same volume of Tris buffer containing 5 mM MgCl2 with several brief pulses from a Polytron homogenizer. This particulate preparation is used for the mu-opioid binding assays. […] The filters are rinsed three times with 2 mL of 10 mM HEPES (pH7.4), and dried in a microwave oven 2 min twice. To each sample area 2×50 μL of Betaplate Scint scintillation fluid (LKB) is added and analyzed on a LKB (Wallac) 1205 BetaPlate liquid scintillation counter.
(§1) The data are used to calculate either the % inhibition compared to control binding (when only a single concentration of test compound is evaluated) or a Ki value (when a range of concentrations is tested). % inhibition is calculated as: [(total dpm-test compound dpm)/(total dpm-nonspecific dpm)]*100. Kd and Ki values were calculated using GraphPad PRISM data analysis program.
Male, Wistar rats (150-250 g, VAF, Charles River, Kingston, N.Y.) were killed by cervical dislocation, and their brains removed and placed immediately in ice-cold Tris HCl buffer (50 mM, pH 7.4). The forebrains were separated from the remainder of the brain by a coronal transection, beginning dorsally at the colliculi and passing ventrally through the midbrain-pontine junction. After dissection, the forebrains were homogenized in Tris buffer in a Teflon®-glass homogenizer. The homogenate was diluted to a concentration of 1 g of forebrain tissue per 80 mL Tris and centrifuged at 39,000×g for 10 min. The pellet was resuspended in the same volume of Tris buffer containing 5 mM MgCl2 with several brief pulses from a Polytron homogenizer. This particulate preparation was used for the mu opioid binding assay. Following incubation with 0.8 nM of the mu selective ligand [^3H]DAMGO at 25° C. for 2.5 h in a 96-well plate with total 1 mL, the plate contents were filtered through Wallac filtermat B sheets on a Tomtec 96-well harvester. The filters were rinsed three times with 2 mL of 10 mM HEPES (pH 7.4), and dried in a microwave oven. To each sample area, Betaplate Scint scintillation fluid (LKB) was added and the resulting radioactivity quantified on a LKB (Wallac) 1205 BetaPlate liquid scintillation counter. Kd and Ki values were calculated using the GraphPad PRISM data analysis program.

[4] = molecular target: T4, delta opioid receptor (Rattus norvegicus, UniProt P33533); experiment: Rat Brain Delta Opioid Receptor Binding Assay ([3H]DPDPE); conditions: rat forebrain membranes, margin of error 10-20%, read-out: r Ki δ
T4 construct: from tissue; host or cells: forebrain of male Wistar rats
T4 sequence (P33533 whole entry): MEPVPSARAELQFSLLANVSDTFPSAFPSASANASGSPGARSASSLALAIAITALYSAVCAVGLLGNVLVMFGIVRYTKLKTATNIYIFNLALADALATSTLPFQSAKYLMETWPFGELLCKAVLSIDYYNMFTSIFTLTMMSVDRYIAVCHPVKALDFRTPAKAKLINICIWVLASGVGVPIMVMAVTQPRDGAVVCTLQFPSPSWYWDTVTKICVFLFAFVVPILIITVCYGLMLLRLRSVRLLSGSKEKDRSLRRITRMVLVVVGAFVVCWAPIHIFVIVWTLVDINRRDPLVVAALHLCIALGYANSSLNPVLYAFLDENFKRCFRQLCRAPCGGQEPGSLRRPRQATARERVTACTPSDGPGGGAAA
Description: Male, Wistar rats (150-250 g, VAF, Charles River, Kingston, N.Y.) are killed by cervical dislocation, and their brains removed and placed immediately in ice cold Tris HCl buffer (50 mM, pH 7.4). The forebrains are separated from the remainder of the brain by a coronal transection, beginning dorsally at the colliculi and passing ventrally through the midbrain-pontine junction. After dissection, the forebrains are homogenized in Tris buffer in a Teflon® glass homogenizer. The homogenate is diluted to a concentration of 1 g of forebrain tissue per 80 mL Tris and centrifuged at 39,000×g for 10 min. The pellet is resuspended in the same volume of Tris buffer containing 5 mM MgCl2 with several brief pulses from a Polytron homogenizer. This particulate preparation is used for the delta opioid binding assays. Following incubation with the delta selective peptide ligand ˜4 nM [^3H]DPDPE at 25° C. for 2.5 h in a 96-well plate with total volume of 1 mL, the plate contents are filtered through Wallac filtermat B sheets on a Tomtec 96-well harvester. The filters are rinsed three times with 2 mL of 10 mM HEPES (pH 7.4), and dried in a microwave oven 2 min twice. To each sample area 2×50 μL of Betaplate Scint scintillation fluid (LKB) is added and analyzed on a LKB (Wallac) 1205 BetaPlate liquid scintillation counter.
as §1, with “dpm−test” for “dpm-test”, “dpm−nonspecific” for “dpm-nonspecific”

[5] = molecular target: T5, human mu opioid receptor (Homo sapiens, UniProt P35372); experiment: Human Mu Opioid Receptor Binding Assay (CHO membranes, 3H-Damgo); conditions: read-out: hKi μ
T5 construct: purchased Perkin Elmer RBHOMM400UA; host or cells: Chinese Hamster Ovary cells (recombinant expression)
T5 sequence (P35372 whole entry): as the sequence (P35372 whole entry) above
Procedure, shortened: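 Membranes from CHO cells expressing human mu opioid receptor, 300 μg/mL, in 50 mM Tris pH 7.5, 5 mM MgCl2. Incubated with compound and ³H-Damgo (3.6 nM before mixing) for 2 h at room temperature, filtered, counted by scintillation. Nonspecific binding with 1 μM unlabelled Damgo.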

[6] = tested on: novel environment-stressed mice; experiment: In Vivo Assay-Stress-Induced Fecal Output (Fecal Output for 1 hr); set-up: species or system mouse; conditions: 30 mg/kg oral, 1 hr; for response vs control in vivo at 30 mg/kg: Mus musculus, po, 1 h
From the text: This assay evaluates the fecal output in novel environment-stressed mice to that of acclimated controls.
Methods: Adult, male, Crl:CD-1(ICR) mice, weighing ˜30-35 g were used in these studies, with a minimum of 10 mice per dose group. One group of mice was assigned as acclimated, or “non-stressed” controls. These control mice were transported from colony housing, where they were housed 3/cage in polycarbonate cages with access to food and water ad lib. to the procedure room. The mice were removed from their home cages and individually housed in 20 cm wide×20 cm deep×15 cm tall cages, equipped with a wire mesh bottom where they remained for a 16-18 hr period of acclimation to their novel environment. Mice were allowed access to food and water ad lib. during acclimation. The other groups of mice were assigned as non-acclimated, or “stressed” treatment groups. Each mouse in each group was weighed and vehicle, or test compound, was intragastrically administered by oral intubation in 0.5% methylcellulose. Mice were allowed access to water only ad lib. during the test period. After compound administrations, acclimated (control) as well as non-acclimated (stressed) mice were individually housed in a 20 cm wide×20 cm deep×15 cm tall cage, with a wire mesh bottom. An absorbant cardboard is placed beneath the cages. The number of fecal pellets excreted by each mouse was determined at hourly intervals following placement of the mice in the individual cages. Raw Data=# of fecal pellets/mouse/hr. […]

[7] = molecular target: T6, human delta subtype 2 opioid receptor (Homo sapiens, UniProt P41143); experiment: Human Delta Opioid Receptor Binding Assay (CHO membranes, 3H-Naltrindole); conditions: read-out: hKi δ
T6 construct: purchased Perkin Elmer RBHODM400UA; host or cells: Chinese Hamster Ovary cells (recombinant expression)
T6 sequence (P41143 whole entry): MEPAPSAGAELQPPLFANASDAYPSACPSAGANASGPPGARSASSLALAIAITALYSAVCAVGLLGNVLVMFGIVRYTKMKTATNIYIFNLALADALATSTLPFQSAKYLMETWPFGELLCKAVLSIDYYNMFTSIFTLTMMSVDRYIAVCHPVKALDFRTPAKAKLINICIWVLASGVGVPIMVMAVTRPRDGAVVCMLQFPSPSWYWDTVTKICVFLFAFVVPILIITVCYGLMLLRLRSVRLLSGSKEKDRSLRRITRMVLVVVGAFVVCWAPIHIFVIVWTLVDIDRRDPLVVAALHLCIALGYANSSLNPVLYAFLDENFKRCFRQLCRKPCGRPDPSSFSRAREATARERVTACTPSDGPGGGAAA
Procedure, shortened: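 Filtration binding on CHO-cell membranes expressing the human receptor, in 50 mM Tris pH 7.5 with 5 mM MgCl2, 30 min at room temperature; 3H-naltrindole diluted to 6 nM before mixing 1:1 with compound. Nonspecific binding defined with 1 μM unlabelled naltrindole; inhibition relative to no-inhibitor wells.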

| Structure (SMILES) | EC50 [1] | DOR GTP-binding Assay v2 (% I) [1] | MOR GTP binding assay_v2 (% I) [2] | EC50 [2] | Ki [3] | Ki [4] | Ki [5] | MOR GTP binding assay_v1 (% I) [2] | also measured |
| --- | --- | --- | --- | --- | --- | --- | --- | --- | --- |
| COC(=O)c1cccc(CN(C(=O)[C@@H](N)Cc2c(C)cc(C(N)=O)cc2C)[C@@H](C)c2nc(-c3ccccc3)c[nH]2)n1 [Cpd 313] | 0.00503 µM | 49% | 29.00% | 0.0506 µM | – | – | – | – | – |
| COC(=O)c1ccc(CN(C(=O)[C@@H](N)Cc2c(C)cc(C(N)=O)cc2C)[C@@H](C)c2nc(-c3ccccc3)c[nH]2)nc1 [Cpd 252] | 0.0321 µM | 66.00% | 24.00% | 0.00415 µM | – | – | – | – | – |
| C[C@H](c1nc(-c2ccccc2)c[nH]1)N(C)C(=O)[C@@H](N)Cc1ccc(O)cc1 [Cpd 210] | – | – | – | – | 0.42 µM | 1.86 µM | 0.00029 µM | 10.00% | MOR GTP assay_v1 % of Basal [2]: 414.00% |
| Cc1cc(C(N)=O)cc(C)c1C[C@H](N)C(=O)N(Cc1nc(-c2ccccc2)c[nH]1)C(C)C [Cpd 178] | – | – | – | – | 0.0006 µM | 0.104 µM | – | 10.00% | Fecal Output (# pellets) cpd ([6]; novel environment-stressed mice): 5.5 pellets; response vs control in vivo at 30 mg/kg ([6]; relative to acclimated control, read-out: Fecal Output cpd % control): 172%; response vs control in vivo at 30 mg/kg ([6]; relative to novel environment stress (NES) vehicle group, read-out: Fecal Output cpd % NES): 62.5% |
| COc1ccc(CN(C(=O)[C@@H](N)Cc2c(C)cc(C(N)=O)cc2C)[C@@H](C)c2nc(-c3cccc(C(=O)O)c3)c[nH]2)cc1OC [Cpd 20] | > 10 µM | 78.74% | – | – | – | – | 0.063 µM | – | – |
| Cc1cc(C(N)=O)cc(C)c1C[C@H](N)C(=O)N(Cc1ccc(C(=O)O)nc1)[C@@H](C)c1nc(-c2ccccc2)c[nH]1 [Cpd 254] | 0.00627 µM | 62.00% | 42.00% | 0.316 µM | – | – | – | – | – |
| N[C@@H](Cc1ccc(O)cc1)C(=O)N(Cc1nc(-c2ccccc2)c[nH]1)C1CCCCC1 [Cpd 191] | – | – | – | – | 0.189 µM | 0.727 µM | – | – | Ki [7]: > 10 µM |
| COC(=O)c1ccc(CN(C(=O)[C@@H](N)Cc2c(C)cc(C(N)=O)cc2C)[C@@H](C)c2nc(-c3ccccc3)c[nH]2)cn1 [Cpd 255] | 0.0131 µM | 54.00% | 33.00% | 0.00348 µM | – | – | – | – | – |
| COC(=O)c1cc(CN(C(=O)[C@@H](N)Cc2c(C)cc(C(N)=O)cc2C)[C@@H](C)c2nc(-c3ccccc3)c[nH]2)ccn1 [Cpd 311] | 0.00102 µM | 41.00% | – | – | – | – | – | – | – |
| CN(Cc1nc(-c2ccccc2)c[nH]1)C(=O)[C@@H](N)Cc1ccc(O)cc1 [Cpd 198] | – | – | – | – | 0.152 µM | 5.18 µM | 0.14 µM | – | Ki [7]: > 10 µM |
| N[C@@H](Cc1ccc(O)cc1)C(=O)N(Cc1nc(-c2ccccc2)c[nH]1)CC1CC1 [Cpd 193] | – | – | – | – | 0.0211 µM | 0.182 µM | – | 54.00% | Ki [7]: > 10 µM; MOR GTP assay_v1 % of Basal [2]: 182.00% |
| Cc1cc(O)cc(C)c1C[C@H](N)C(=O)N[C@H](C)c1nc(-c2ccccc2)c[nH]1 [Cpd 208] | – | – | – | – | 0.0013 µM | 0.033 µM | 0.0012 µM | 1.00% | MOR GTP assay_v1 % of Basal [2]: 475.00% |
